Tests used:
blackgrass = assay: Test C pre-/postemergence test; format: in vivo, Alopecurus myosuroides
From the text: (§1) Seeds of plant species selected from blackgrass (Alopecurus myosuroides), downy brome (Bromus tectorum), green foxtail (Setaria viridis), Italian ryegrass (Lolium multiflorum), wheat (Triticum aestivum), wild oat (Avena fatua), catchweed bedstraw (Galium aparine), Russian thistle (Salsola kali), […] (Cynodon dactylon), Surinam grass (Brachiaria decumbens), cocklebur (Xanthium strumarium), corn (Zea mays), crabgrass (Digitaria sanguinalis), woolly cupgrass (Eriochloa villosa), giant foxtail (Setaria faberii), Goosegrass (Eleusin indica), johnsongrass (Sorghum halepense), kochia (Kochia scoparia), lambsquarters (Chenopodium album), morningglory (Ipomoea coccinea), eastern black nightshade (Solanum ptycanthum), yellow nutsedge (Cyperus esculentus), pigweed (Amaranthus retroflexus), common ragweed (Ambrosia elation), soybean (Glycine max), common (oilseed) sunflower (Helianthus annuus), and velvetleaf (Abutilon theophrasti) were planted and treated preemergence with test chemicals formulated in a non-phytotoxic solvent mixture which included a surfactant. At the same time, plants selected from these crop and weed species and also winter barley (Hordeum vulgare), canarygrass (Phalaris minor), and chickweed (Stellaria media) were treated with postemergence applications of some of the test chemicals formulated in the same manner. Plants ranged in height from 2 to 18 cm (1- to 4-leaf stage) for postemergence treatments. […] At time of treatment, test pots were flooded to 3 cm above the soil surface, treated by application of test compounds directly to the paddy water, and then maintained at that water depth for the duration of the test. […] A dash (-) response means no test result.

johnsongrass = assay: Test C pre-/postemergence test; format: in vivo, Sorghum halepense
From the text: as §1

downy brome = assay: Test C pre-/postemergence test; format: in vivo, Bromus tectorum
From the text: as §1

soybean = assay: Test C pre-/postemergence test; format: in vivo, Glycine max
From the text: as §1

giant foxtail = assay: Test C pre-/postemergence test; format: in vivo, Setaria faberii
From the text: as §1

green foxtail = assay: Test C pre-/postemergence test; format: in vivo, Setaria viridis
From the text: as §1

wild oat = assay: Test C pre-/postemergence test; format: in vivo, Avena fatua
From the text: as §1

duck salad = assay: Test C flooded paddy test; format: in vivo, Heteranthera limosa; details: Flood
Procedure, shortened: (§2)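 Pots were flooded to 3 cm above the soil surface at treatment, compound applied directly to the paddy water, and that depth held throughout. Plants were kept in a greenhouse for 13 to 15 days, then visually rated against untreated controls.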

barnyardgrass = assay: Test C flooded paddy test; format: in vivo, Echinochloa crus-galli; details: Flood
Procedure, shortened: as §2

velvetleaf [1] = assay: Test A pre-/postemergence greenhouse test; format: in vivo, Abutilon theophrasti; details: for Plant response rating, Velvetleaf: 0 to 100 scale where 0 is no effect and 100 is complete control; for Velvetleaf plant response rating: 0 to 100 scale
Procedure, shortened: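 Seeds sown in a loam soil–sand blend got a preemergence directed soil spray of compound in a non-phytotoxic solvent mixture containing surfactant. Postemergence sprays of the same formulation went at the same time onto plants 2–10 cm tall at the one- to two-leaf stage. Injury was scored visually against untreated controls after about ten days in the greenhouse.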

morningglory = assay: Test C pre-/postemergence test; format: in vivo, Ipomoea coccinea
From the text: as §1

cocklebur = assay: Test C pre-/postemergence test; format: in vivo, Xanthium strumarium; details: for Plant response rating, Cocklebur: scale 0 to 100, 0 no effect, 100 complete control
From the text: as §1

woolly cupgrass = assay: Test C pre-/postemergence test; format: in vivo, Eriochloa villosa
From the text: as §1

Italian ryegrass = assay: Test C pre-/postemergence test; format: in vivo, Lolium multiflorum
From the text: as §1

corn = assay: Test C pre-/postemergence test; format: in vivo, Zea mays
From the text: as §1

velvetleaf [2] = assay: Test C pre-/postemergence test; format: in vivo, Abutilon theophrasti
From the text: as §1

[3] = 62 g ai/ha, Preemergence, scale 0 to 100
[4] = 125 g ai/ha, preemergence, scale 0 (no effect) to 100 (complete control)
[5] = Preemergence, 31 g ai/ha, scale 0 to 100 (0 no effect, 100 complete control)
[6] = preemergence, 250 g ai/ha, scale 0 (no effect) to 100 (complete control)
[7] = 62 g ai/ha, scale 0 to 100 (0 no effect, 100 complete control)
[8] = 250 g ai/ha, scale 0 to 100, 0 no effect, 100 complete control, 13 to 15 days
[9] = Postemergence, 500 g ai/ha, 0 is no effect, 100 is complete control
[10] = Preemergence, 125 g ai/ha, 0 no effect, 100 complete control
[11] = Postemergence, 62 g ai/ha, scale 0 to 100, 0 no effect, 100 complete control
[12] = Postemergence, 125 g ai/ha, scale 0 to 100, 0 no effect, 100 complete control
[13] = Postemergence, 250 g ai/ha, scale 0 to 100, 0 no effect, 100 complete control

CCn1nc(C(F)(F)F)c(C[S+]([O-])c2cc(C)cc[n+]2[O-])c1OCC(F)(F)F (racemic) [Compound 66]
85: Plant response rating, Foxtail, Green (green foxtail; [5]) | Oat, Wild plant response rating (wild oat; [3]) | Plant response rating, Oat, Wild (wild oat; [5]) | Cocklebur plant response rating (cocklebur; [6]) | Cupgrass, Woolly plant response rating (woolly cupgrass; [3])
95: Oat, Wild plant response rating (wild oat; [4]) | Oat, Wild plant response rating (wild oat; [6]) | Velvetleaf plant response rating (velvetleaf [2]; [4])
80: Johnsongrass plant response rating (johnsongrass; [4]) | Plant response rating, Johnsongrass (johnsongrass; [5]) | Johnsongrass plant response rating (johnsongrass; [6]) | Soybean plant response rating (soybean; [4]) | Velvetleaf plant response rating (velvetleaf [1]; [9]) | Corn plant response rating (corn; [3])
90: Bromegrass, Downy plant response rating (downy brome; [3]) | Plant response rating, Ducksalad (duck salad; [8]) | Morningglory plant response rating (morningglory; [3]) | Morningglory plant response rating (morningglory; [4]) | Ryegrass, Italian plant response rating (Italian ryegrass; [3]) | Velvetleaf plant response rating (velvetleaf [2]; [3])
70: Blackgrass plant response rating (blackgrass; [3]) | Plant response rating, Bromegrass, Downy (downy brome; [5]) | Plant response rating, Ducksalad (duck salad; [7]) | Plant response rating, Barnyardgrass (barnyardgrass; [8]) | Plant response rating, Velvetleaf (velvetleaf [2]; [5])
60: Plant response rating, Velvetleaf (velvetleaf [1]; Postemergence, 125 g ai/ha) | Velvetleaf plant response rating (velvetleaf [1]; [10])
100: Blackgrass plant response rating (blackgrass; [4]) | Blackgrass plant response rating (blackgrass; [6]) | Bromegrass, Downy plant response rating (downy brome; [4]) | Bromegrass, Downy plant response rating (downy brome; [6]) | Foxtail, Giant plant response rating (giant foxtail; [3]) | Foxtail, Giant plant response rating (giant foxtail; [4]) | Plant response rating, Foxtail, Giant (giant foxtail; [5]) | Foxtail, Giant plant response rating (giant foxtail; [6]) | Foxtail, Green plant response rating (green foxtail; [3]) | Foxtail, Green plant response rating (green foxtail; [4]) | Foxtail, Green plant response rating (green foxtail; [6]) | Plant response rating, Velvetleaf (velvetleaf [1]; Preemergence, 500 g ai/ha) | Morningglory plant response rating (morningglory; [6]) | Cupgrass, Woolly plant response rating (woolly cupgrass; [4]) | Cupgrass, Woolly plant response rating (woolly cupgrass; [6]) | Ryegrass, Italian plant response rating (Italian ryegrass; [4]) | Corn plant response rating (corn; [4]) | Corn plant response rating (corn; [6]) | Velvetleaf plant response rating (velvetleaf [2]; [6])
10: Plant response rating, Barnyardgrass (barnyardgrass; [7])
50: Plant response rating, Blackgrass (blackgrass; [5]) | Plant response rating, Morningglory (morningglory; [5])
0: Cocklebur plant response rating (cocklebur; [3])
55: Plant response rating, Ryegrass, Italian (Italian ryegrass; [5])

Cn1nc(C(F)(F)F)c(C[S+]([O-])c2ccc(F)c[n+]2[O-])c1OCC(F)(F)F (centres unmarked) [Compound 67]
85: Johnsongrass plant response rating (johnsongrass; [6]) | Velvetleaf plant response rating (velvetleaf [2]; [3])
60: Plant response rating, Bromegrass, Downy (downy brome; [13]) | Plant response rating, Foxtail, Green (green foxtail; [12]) | Plant response rating, Oat, Wild (wild oat; [13]) | Plant response rating, Velvetleaf (velvetleaf [1]; Postemergence, 125 g ai/ha) | Plant response rating, Morningglory (morningglory; [5])
0: Plant response rating (0 to 100), Johnsongrass (johnsongrass; Postemergence, 31 g ai/ha) | Plant response rating, Johnsongrass (johnsongrass; [11]) | Plant response rating, Johnsongrass (johnsongrass; [12]) | Plant response rating, Johnsongrass (johnsongrass; [13]) | Plant response rating (0 to 100), Bromegrass, Downy (downy brome; Postemergence, 31 g ai/ha) | Plant response rating (0 to 100), Soybean (soybean; Postemergence, 31 g ai/ha) | Plant response rating, Soybean (soybean; [5]) | Plant response rating (0 to 100), Foxtail, Giant (giant foxtail; Postemergence, 31 g ai/ha) | Plant response rating, Foxtail, Giant (giant foxtail; [11]) | Plant response rating (0 to 100), Foxtail, Green (green foxtail; Postemergence, 31 g ai/ha) | Plant response rating (0 to 100), Morningglory (morningglory; Postemergence, 31 g ai/ha) | Plant response rating, Morningglory (morningglory; [11]) | Plant response rating, Morningglory (morningglory; [12]) | Plant response rating, Morningglory (morningglory; [13]) | Cocklebur plant response rating (cocklebur; [4]) | Plant response rating (0 to 100), Cocklebur (cocklebur; Postemergence, 31 g ai/ha) | Plant response rating, Cocklebur (cocklebur; Postemergence, 62 g ai/ha) | Plant response rating, Cocklebur (cocklebur; Postemergence, 125 g ai/ha) | Plant response rating, Cocklebur (cocklebur; Postemergence, 250 g ai/ha) | Plant response rating (0 to 100), Cupgrass, Woolly (woolly cupgrass; Postemergence, 31 g ai/ha) | Plant response rating, Cupgrass, Woolly (woolly cupgrass; [11]) | Plant response rating (0 to 100), Ryegrass, Italian (Italian ryegrass; Postemergence, 31 g ai/ha) | Plant response rating (0 to 100), Corn (corn; Postemergence, 31 g ai/ha) | Plant response rating, Corn (corn; [11]) | Plant response rating, Corn (corn; [13]) | Plant response rating (0 to 100), Velvetleaf (velvetleaf [2]; Postemergence, 31 g ai/ha) | Plant response rating (0 to 100), Velvetleaf (velvetleaf [2]; Postemergence, 62 g ai/ha)
40: Plant response rating, Bromegrass, Downy (downy brome; [12]) | Plant response rating (0 to 100), Soybean (soybean; Postemergence, 62 g ai/ha) | Plant response rating, Foxtail, Giant (giant foxtail; [12]) | Plant response rating (0 to 100), Ryegrass, Italian (Italian ryegrass; Postemergence, 62 g ai/ha)
90: Plant response rating, Blackgrass (blackgrass; [12]) | Plant response rating, Blackgrass (blackgrass; [13]) | Plant response rating, Blackgrass (blackgrass; [5]) | Plant response rating, Foxtail, Green (green foxtail; [13]) | Velvetleaf plant response rating (velvetleaf [1]; [9]) | Velvetleaf plant response rating (velvetleaf [1]; [10]) | Plant response rating, Ryegrass, Italian (Italian ryegrass; [12]) | Plant response rating, Ryegrass, Italian (Italian ryegrass; [13])
75: Plant response rating, Velvetleaf (velvetleaf [2]; [5])
95: Morningglory plant response rating (morningglory; [3]) | Corn plant response rating (corn; [3]) | Corn plant response rating (corn; [4])
30: Plant response rating (0 to 100), Blackgrass (blackgrass; Postemergence, 31 g ai/ha) | Plant response rating, Cupgrass, Woolly (woolly cupgrass; [12]) | Plant response rating, Velvetleaf (velvetleaf [2]; [12])
65: Plant response rating, Johnsongrass (johnsongrass; [5])
35: Plant response rating, Velvetleaf (velvetleaf [2]; [13])
50: Plant response rating, Soybean (soybean; [12]) | Plant response rating, Cupgrass, Woolly (woolly cupgrass; [13])
80: Plant response rating, Blackgrass (blackgrass; [11]) | Johnsongrass plant response rating (johnsongrass; [4]) | Soybean plant response rating (soybean; [3]) | Plant response rating, Soybean (soybean; [13]) | Plant response rating, Foxtail, Giant (giant foxtail; [5]) | Oat, Wild plant response rating (wild oat; [3]) | Plant response rating, Oat, Wild (wild oat; [5]) | Cupgrass, Woolly plant response rating (woolly cupgrass; [3])
45: Plant response rating, Foxtail, Green (green foxtail; [11]) | Plant response rating, Corn (corn; [5])
70: Johnsongrass plant response rating (johnsongrass; [3]) | Plant response rating, Foxtail, Giant (giant foxtail; [13]) | Plant response rating, Cupgrass, Woolly (woolly cupgrass; [5])
98: Oat, Wild plant response rating (wild oat; [4]) | Cupgrass, Woolly plant response rating (woolly cupgrass; [4])
100: Blackgrass plant response rating (blackgrass; [3]) | Blackgrass plant response rating (blackgrass; [4]) | Blackgrass plant response rating (blackgrass; [6]) | Bromegrass, Downy plant response rating (downy brome; [3]) | Bromegrass, Downy plant response rating (downy brome; [4]) | Plant response rating, Bromegrass, Downy (downy brome; [5]) | Bromegrass, Downy plant response rating (downy brome; [6]) | Soybean plant response rating (soybean; [4]) | Soybean plant response rating (soybean; [6]) | Foxtail, Giant plant response rating (giant foxtail; [3]) | Foxtail, Giant plant response rating (giant foxtail; [4]) | Foxtail, Giant plant response rating (giant foxtail; [6]) | Foxtail, Green plant response rating (green foxtail; [3]) | Foxtail, Green plant response rating (green foxtail; [4]) | Plant response rating, Foxtail, Green (green foxtail; [5]) | Foxtail, Green plant response rating (green foxtail; [6]) | Oat, Wild plant response rating (wild oat; [6]) | Plant response rating, Ducksalad (duck salad; [7]) | Plant response rating, Velvetleaf (velvetleaf [1]; Preemergence, 500 g ai/ha) | Morningglory plant response rating (morningglory; [4]) | Morningglory plant response rating (morningglory; [6]) | Cupgrass, Woolly plant response rating (woolly cupgrass; [6]) | Ryegrass, Italian plant response rating (Italian ryegrass; [3]) | Ryegrass, Italian plant response rating (Italian ryegrass; [4]) | Plant response rating, Ryegrass, Italian (Italian ryegrass; [5]) | Ryegrass, Italian plant response rating (Italian ryegrass; [6]) | Corn plant response rating (corn; [6]) | Velvetleaf plant response rating (velvetleaf [2]; [4]) | Velvetleaf plant response rating (velvetleaf [2]; [6])
20: Plant response rating, Oat, Wild (wild oat; [11])
10: Plant response rating, Bromegrass, Downy (downy brome; [11]) | Plant response rating (0 to 100), Oat, Wild (wild oat; Postemergence, 31 g ai/ha)
